Measurements: ChEMBL document CHEMBL2074517, “Bile acid inhibition of P-glycoprotein-mediated transport in multidrug-resistant cells and rat liver canalicular membrane vesicles” (Hepatology, 1994)

What was measured:
Set-up in all cases: scale not given: the % may be the effect or the level left
[1] = biological target: Multidrug resistance protein 1a (Rattus norvegicus) (UniProt Q6PSM0); assay: TP_TRANSPORTER: inhibition of Daunomycin uptake (Daunorubicin: 10 uM, TCDC: 200 uM) in canalicular membrane vesicles from SD rat; format: functional, cell membranes; conditions: Sprague-Dawley, Canalicular membrane vesicle
Sequence of Multidrug resistance protein 1a (Rattus norvegicus) (Q6PSM0 as listed by the source): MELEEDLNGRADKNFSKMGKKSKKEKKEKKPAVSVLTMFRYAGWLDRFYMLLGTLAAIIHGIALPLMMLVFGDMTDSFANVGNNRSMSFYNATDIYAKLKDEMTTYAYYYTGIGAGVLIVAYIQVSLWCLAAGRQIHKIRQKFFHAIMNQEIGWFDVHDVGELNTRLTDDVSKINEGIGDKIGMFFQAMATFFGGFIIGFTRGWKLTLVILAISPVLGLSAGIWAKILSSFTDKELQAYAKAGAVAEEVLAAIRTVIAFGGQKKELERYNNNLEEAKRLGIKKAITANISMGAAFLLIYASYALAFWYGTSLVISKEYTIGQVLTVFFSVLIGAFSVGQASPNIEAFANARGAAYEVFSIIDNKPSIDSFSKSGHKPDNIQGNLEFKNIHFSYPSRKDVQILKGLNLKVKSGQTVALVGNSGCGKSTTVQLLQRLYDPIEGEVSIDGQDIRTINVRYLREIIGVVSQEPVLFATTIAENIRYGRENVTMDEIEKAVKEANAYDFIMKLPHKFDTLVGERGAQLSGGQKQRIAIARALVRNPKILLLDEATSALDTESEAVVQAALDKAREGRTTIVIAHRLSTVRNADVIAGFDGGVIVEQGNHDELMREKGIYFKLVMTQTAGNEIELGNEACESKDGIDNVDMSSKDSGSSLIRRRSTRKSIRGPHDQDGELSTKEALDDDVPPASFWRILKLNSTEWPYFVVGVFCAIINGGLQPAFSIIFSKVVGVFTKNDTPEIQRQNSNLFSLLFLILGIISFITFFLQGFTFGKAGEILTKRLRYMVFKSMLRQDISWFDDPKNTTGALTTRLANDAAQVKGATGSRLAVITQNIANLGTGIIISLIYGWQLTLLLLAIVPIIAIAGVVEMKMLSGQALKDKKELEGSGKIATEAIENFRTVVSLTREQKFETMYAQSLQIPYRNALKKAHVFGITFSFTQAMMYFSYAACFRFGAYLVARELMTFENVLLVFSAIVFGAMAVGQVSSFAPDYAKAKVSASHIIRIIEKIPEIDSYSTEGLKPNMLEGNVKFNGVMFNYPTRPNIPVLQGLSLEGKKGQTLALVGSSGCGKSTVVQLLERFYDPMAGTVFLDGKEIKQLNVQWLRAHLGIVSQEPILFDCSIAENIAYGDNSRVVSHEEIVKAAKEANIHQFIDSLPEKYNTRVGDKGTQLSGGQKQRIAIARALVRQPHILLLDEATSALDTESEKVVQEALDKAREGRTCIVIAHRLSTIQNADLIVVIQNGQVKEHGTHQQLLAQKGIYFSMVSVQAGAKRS

[2] = biological target: ATP-dependent translocase ABCB1 (Homo sapiens, UniProt P08183); assay: TP_TRANSPORTER: inhibition of Rhodamine 123 efflux (R123: 5 ug/mL, TCDC: 200 uM) in P1(0.5) cells; format: functional, cell-based
Sequence of ATP-dependent translocase ABCB1 (P08183 whole entry): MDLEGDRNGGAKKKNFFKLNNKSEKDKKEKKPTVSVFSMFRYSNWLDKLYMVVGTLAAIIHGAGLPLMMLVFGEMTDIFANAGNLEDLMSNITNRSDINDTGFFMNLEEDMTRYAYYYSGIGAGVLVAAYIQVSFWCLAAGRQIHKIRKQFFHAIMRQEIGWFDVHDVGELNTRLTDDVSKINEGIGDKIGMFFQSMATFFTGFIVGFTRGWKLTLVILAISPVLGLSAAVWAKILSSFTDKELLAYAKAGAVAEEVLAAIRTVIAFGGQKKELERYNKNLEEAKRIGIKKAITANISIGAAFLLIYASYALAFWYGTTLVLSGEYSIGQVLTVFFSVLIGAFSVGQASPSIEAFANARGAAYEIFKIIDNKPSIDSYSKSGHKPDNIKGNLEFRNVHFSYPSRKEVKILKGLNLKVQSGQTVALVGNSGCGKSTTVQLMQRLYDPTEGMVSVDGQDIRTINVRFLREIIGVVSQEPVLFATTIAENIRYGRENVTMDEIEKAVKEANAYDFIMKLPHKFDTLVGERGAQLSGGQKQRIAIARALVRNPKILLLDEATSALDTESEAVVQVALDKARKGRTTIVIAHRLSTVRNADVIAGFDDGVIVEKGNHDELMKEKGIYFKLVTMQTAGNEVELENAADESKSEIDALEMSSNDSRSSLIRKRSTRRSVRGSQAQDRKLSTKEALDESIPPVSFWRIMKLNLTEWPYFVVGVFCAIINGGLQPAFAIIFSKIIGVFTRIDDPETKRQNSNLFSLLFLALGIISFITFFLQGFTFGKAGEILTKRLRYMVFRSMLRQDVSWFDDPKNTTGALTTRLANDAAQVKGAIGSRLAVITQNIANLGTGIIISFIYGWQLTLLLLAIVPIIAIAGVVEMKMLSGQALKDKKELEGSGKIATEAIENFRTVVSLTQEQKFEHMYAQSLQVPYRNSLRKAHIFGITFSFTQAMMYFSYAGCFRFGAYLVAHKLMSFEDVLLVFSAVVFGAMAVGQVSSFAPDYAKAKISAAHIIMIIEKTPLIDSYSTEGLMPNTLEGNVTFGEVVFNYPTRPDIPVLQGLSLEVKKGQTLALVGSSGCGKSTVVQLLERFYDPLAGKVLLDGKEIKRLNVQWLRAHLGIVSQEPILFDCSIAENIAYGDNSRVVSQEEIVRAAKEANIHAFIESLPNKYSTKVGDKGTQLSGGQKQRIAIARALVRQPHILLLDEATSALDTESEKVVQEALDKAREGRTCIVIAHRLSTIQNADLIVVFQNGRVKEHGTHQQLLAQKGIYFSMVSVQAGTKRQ

[3] = biological target: ATP-dependent translocase ABCB1 (P-glycoprotein) (Homo sapiens, UniProt P08183); assay: TP_TRANSPORTER: inhibition of Rhodamine 123 efflux (R123: 5 ug/mL, TLCA: 200 uM) in P1(0.5) cells; format: functional, cell-based; conditions: probe Rhodamine 123, read-out: Activity
Sequence of ATP-dependent translocase ABCB1 (P-glycoprotein) (P08183 whole entry): as above

[4] = biological target: Multidrug resistance protein 1a (Rattus norvegicus) (UniProt Q6PSM0); assay: TP_TRANSPORTER: inhibition of Daunomycin uptake (Daunorubicin: 10 uM, TLCA: 200 uM) in canalicular membrane vesicles from SD rat; format: functional, cell membranes; conditions: Sprague-Dawley, Canalicular membrane vesicle
[5] = biological target: Multidrug resistance protein 1a (Rattus norvegicus) (UniProt Q6PSM0); assay: TP_TRANSPORTER: inhibition of Daunomycin uptake (Daunorubicin: 10 uM, UDCA: 200 uM) in canalicular membrane vesicles from SD rat; format: functional, cell membranes; conditions: Sprague-Dawley, Canalicular membrane vesicle

C[C@H](CCC(=O)NCCS(=O)(=O)O)[C@H]1CC[C@H]2[C@@H]3[C@H](O)C[C@@H]4C[C@H](O)CC[C@]4(C)[C@H]3CC[C@]12C [TAUROCHENODEOXYCHOLATE]
Activity [1]: 33% | Activity [2]: 66%

C[C@H](CCC(=O)NCCS(=O)(=O)O)[C@H]1CC[C@H]2[C@@H]3CC[C@@H]4C[C@H](O)CC[C@]4(C)[C@H]3CC[C@]12C [TAUROLITHOCHOLIC ACID]
activity at 200 µM [3]: 40% | Activity [4]: 16%

C[C@H](CCC(=O)O)[C@H]1CC[C@H]2[C@@H]3[C@@H](O)C[C@@H]4C[C@H](O)CC[C@]4(C)[C@H]3CC[C@]12C
Activity [5]: 39%
